Assay results as given in patent publication US10835719B2, “Drug releasing coatings for medical devices” (Lutonix, Inc., priority 2006, dated 2020).

How the values were obtained:
[1] = Stability of additive with paclitaxel under ethylene oxide sterilization, heating and aging; type: physicochemical; settings: additive formulated with paclitaxel; reacted with paclitaxel
[2] = cited from earlier work
albumin = albumin (Homo sapiens, UniProt P02768); settings: cited from earlier work
Sequence of albumin (P02768 25-609): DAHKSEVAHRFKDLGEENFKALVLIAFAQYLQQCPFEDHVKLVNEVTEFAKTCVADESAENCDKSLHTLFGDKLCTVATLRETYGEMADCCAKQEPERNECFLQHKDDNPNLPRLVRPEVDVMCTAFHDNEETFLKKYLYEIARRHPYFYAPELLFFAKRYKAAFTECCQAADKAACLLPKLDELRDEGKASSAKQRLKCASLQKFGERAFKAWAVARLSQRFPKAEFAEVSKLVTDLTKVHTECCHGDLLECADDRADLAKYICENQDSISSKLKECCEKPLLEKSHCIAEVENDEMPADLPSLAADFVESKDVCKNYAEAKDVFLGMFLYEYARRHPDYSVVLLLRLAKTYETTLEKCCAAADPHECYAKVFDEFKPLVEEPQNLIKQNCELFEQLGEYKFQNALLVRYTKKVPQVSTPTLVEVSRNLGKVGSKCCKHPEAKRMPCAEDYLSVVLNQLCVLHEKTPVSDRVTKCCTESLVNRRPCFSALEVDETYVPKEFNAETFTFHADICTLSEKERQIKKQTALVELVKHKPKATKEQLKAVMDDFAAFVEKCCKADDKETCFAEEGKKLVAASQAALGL

| Compound | stability under ethylene oxide sterilization, heating, and aging process [1] | further results |
| --- | --- | --- |
| O=C1O[C@H]([C@@H](O)CO)C(O)=C1O [ascorbic acid] | not stable |  |
| PEG-20 sorbitan monolaurate [Tween 20] |  | log P [2]: about 3.0 |
| COc1ccc(O)c(C(C)(C)C)c1 [Butylated hydroxyanisole (BHA), Butylated hydroxyanisole] |  | log P [2]: 1.31 |
| CO[C@H]1C[C@@H]2CC[C@@H](C)[C@@](O)(O2)C(=O)C(=O)N2CCCC[C@H]2C(=O)O[C@H]([C@H](C)C[C@@H]2CC[C@@H](O)[C@H](OC)C2)CC(=O)[C@H](C)/C=C(\C)[C@@H](O)[C@@H](OC)C(=O)[C@H](C)C[C@H](C)/C=C/C=C/C=C/1C [rapamycin] |  | protein bound (albumin): 92% |
| OCCNCCO [diethanolamine] | not stable |  |
| O=C(O)c1ccccc1 [benzoic acid] | not stable |  |
| O=C(O)c1cc(O)ccc1O [gentisic acid] | not stable |  |
